# Test results as given in patent US11697679B2, “Modified collagen protein and application of same” (UNIVERSITY OF TSUKUBA, priority 2017, dated 2023).
# Test system: GFP-inserted Type V collagen α1 expression MC3T3-E1
# Assay: Fibrogenesis inhibitory experiment in stress culture in multi-well plates
# Format: cell-based, mouse
# Settings: 1.0 mg/ml added when switched to stress culture; observed after 28 days; compared to wells without Pirfenidone; FIG. 18
# Procedure: Normal cultivation was performed using the following materials. Cultivations using MC3T3-E1 and Balb3T3, respectively, were performed in αMEM medium containing 10% serum, and in MEM medium containing 10% serum, at 37° C. and 5% CO2. • Serum: Fetal bovine serum (Gibco) • Medium: Minimum Essential Medium Alpha (Gibco) • Medium: Minimum Essential Medium (Gibco) • Dish for culturing cells: Cell culture dish 60×15 mm (Falcon)
# The following flasks were filled with medium for shaking culture. • Cell-culture flasks: 25 mL (Falcon) of Cell culture flask (12.5 cm^2 slant neck/plug seal)
# The shaking culture was performed using a mini-shaker SHM-2002 (LMS) at a shaking angle of 7° and a rotational speed of 20 rpm using a sunflower shaking method.
# OLYMPUS LX73 was used for fluorescent microscopy. The following filter sets were used for fluorescence imaging. • Green Fluorescence: U-EGFP (OLYMPUS), Ex: 470/20, Em: 518/45 • Red fluorescence: BrightLine®SpGold-B-000-ZERO (Semrock), Ex: 534/20, Em: 572/28 • Near Infrared Fluorescence: BrightLine®Cy5.5-B-000 (Semrock), Ex: 655/40, Em: 716/40
# The GFP-inserted Type V collagen α1 expression MC3T3-E1 was cultured in multi-well plates and when switched to stress cultures capable of inducing collagen secretion, 1.0 mg/ml of Pirfenidone was added and compared to wells without such addition of Pirfenidone. […]
structure (smiles),measurement,value
Cc1ccc(=O)n(-c2ccccc2)c1 [Pirfenidone],extracellular collagen fiber formation (green fluorescent fiber structures),inhibited
